From patent US7794795B2, “Hybrid anti-fouling coating compositions and methods for preventing the fouling of surfaces subjected to a marine environment” (The Research Foundation of State University of New York, priority 2003, dated 2010)

How the values were obtained:
[1] = Thiol peroxidase activity: oxidation of PhSH with H2O2, stopped-flow; conditions: for k0, initial linear increase in absorbance: PhSH 1 × 10^−3 M, H2O2 3.75 × 10^−3 M, catalyst 1 × 10^−5 M, MeOH (5% CH2Cl2; 46% for 22), 276.8 K, 305 nm; for v0 (rel): relative to 23a = 1; for v0, initial rate of oxidation of PhSH: same conditions, k0 corrected for the uncatalyzed reaction
Procedure: (§1) All stopped-flow experiments were performed on a SX18 Stopped-Flow Spectrometer (Applied Photophysics, Leatherhead, UK). The sample-handling unit was fitted with two drive syringes that are mounted inside a thermostatted-bath compartment, which allowed for variable temperature experimentation. The optical detection cell was set up in the 2-mm pathlength. First- and second-order curve fitting and rate constants used a Marquardt algorithm (Marquardt, J. Soc. Indust Appl. Mathematics, 11:431 et al. (1963), which is hereby incorporated by reference in its entirety) based on the routine Curfit (Bevington, Data Reduction and Error Analysis for the Physical Sciences, McGraw-Hill, New York (1969), which is hereby incorporated by reference in its entirety).
Stock solutions of 2.0×10^−3 M of catalyst in CH2Cl2 and 5.0×10^−2 M PhSH in CH2Cl2 were prepared. These were diluted with MeOH to give a 5% CH2Cl21MeOH solution of 2.0×10^−5 M telluride and 2.0×10^−3 PhSH. A stock solution of 7.50×10^−3 M H2O2 in MeOH was prepared. These two solutions were mixed in the stopped-flow spectrometer to give concentrations of 1.0×10^−5 M telluride, 1.0×10^−3 M PhSH, and 3.75×10^−3 M H2O2 and the increase in absorbance at 305 nm was measured. The concentration of H2O2 in the stock solution was determined from the absorbance at 240 nm (E=43.6 cm^−1 M^−1) (Riley et al., Endocrinology, 128:1749 et al. (1991); Zhao et al., Biochemistry, 40:10832 et al. (2001), which are hereby incorporated by reference in their entirety). The values in Table 1 are the average of 7-10 independent runs (± standard deviation).
In earlier work with dendrimeric organotelluride catalysts for the oxidation of halide salts with H2O2 (Francavilla et al., J. Am. Chem. Soc., 123:57 et al. (2001), which is hereby incorporated by reference in its entirety), a two-phase system of CH2Cl2 and pH-6 buffer was employed, which kept the catalysts and substrate in solution. In order to evaluate the catalysts in a homogeneous system, the method of Tomoda et al. (Iwaoka et al., J. Am. Chem. Soc., 116:2557 et al. (1994); Mugesh et al., J. Am. Chem. Soc., 123:839 et al. (2001), which are hereby incorporated by reference in their entirety) was employed to measure thiol peroxidase activity. In this procedure, thiophenol (PhSH) is oxidized to diphenyl disulfide (PhSSPh) using H2O2 as the oxidant. Catalytic activity was determined by the initial rates for the oxidation of PhSH (1.0×10^−3 M) with H2O2 (3.75×10^−3 M) in MeOH in the presence of a catalyst at a standard concentration of 1.0×10^−5 M.
A 5% CH2Cl2/MeOH solution of catalyst (9, 15, 20, 23, or 24 at 2.0×10^−5M) and PhSH (2.0×10^−3 M) was mixed with an equal volume of a 5% CH2Cl21MeOH solution of H2O2 (7.5×10^−3 M) in a stopped-flow spectrophotometer at 276.8±0.4 K to give final concentrations of […] catalyst, 1.0×10^−3 M PhSH, and 3.75×10^−3M H2O2. The rate of appearance of PhSSPh, with a molar extinction coefficient, ε, of […] at 305 nm (Mugesh et al., J. Am. Chem. Soc., 123:839 et al. (2001), which is hereby incorporated by reference in its entirety), was monitored at 305 nm. The 5% CH2Cl2 was added to keep the tellurides/oxidized tellurides in solution during the course of the reaction. For hexatellurides 22, the percentage of CH2Cl2 was increased to 46% (by volume) in both solutions to keep the dendrimers in solution during the time-course of the analysis.
A slow, uncatalyzed background reaction was observed upon mixing the two solutions in the stopped-flow spectrometer without added catalyst. Values of k0 were corrected for the uncatalyzed background reaction and converted to initial velocities, ν0, in units of […] min^−1 (Table 1). Values of ν0 as a function of the number of catalytic groups is plotted in FIG. 20.

[2] = Oxidation of monotellurides with H2O2, stopped-flow, pseudo first-order; conditions: for observed rate constant for oxidation: 1.03×10^−3 M telluride, 1.03×10^−2 M H2O2, 276.8 K, 5% CH2Cl2/MeOH; for second-order rate constant for oxidation: same conditions
Procedure: as §1
Stock solutions of 2.06×10^−3M telluride and 2.06×10^−2 M H2O2 in 5% CH2Cl2/MeOH were prepared. These two solutions were mixed in the stopped-flow spectrometer to give concentrations of 1.03×10^−3M telluride and 1.03×10^−2 M H2O2 and the increase in absorbance at 325 nm for 23a, 350 nm for 23b, and 352 nm for 24 was measured as a function of time for 7-10 independent runs (1 standard deviation).
The rates of oxidation of monotellurides 23 and 24 were followed in the stopped-flow spectrometer under pseudo first-order conditions. Final concentrations of 1.03×10^−3 M telluride and 1.03×10^−2 M H2O2 at 276.8±0.4 K gave observed rate constants for oxidation of (1.10±0.01)×10^−1 s^−1 for 23a, (3.62±0.02)×10^−1 s^−1 for 23b, and (4.5±0.4)×10^−1 for 24, which correspond to second-order rate constants of 10.7±0.1 M^−1 s^−1 for 23a, 35.1±0.2 M^−1 s^−1 for 23b, and 44±4 M^−1 s^−1 for 24.

SMILES	k0, initial linear increase in absorbance [1]	v0 (rel) [1]	v0, initial rate of oxidation of PhSH [1]	observed rate constant for oxidation [2]	second-order rate constant for oxidation [2]
CN(C)c1ccc([Te]CCCOc2cc(CO)cc(OCCC[Te]c3ccc(N(C)C)cc3)c2)cc1 [9b, 3,5-Bis[3-(4-dimethylaminophenyltelluro)propyloxy]benzyl Alcohol]	(1.69 ± 0.05) × 10^−4 ΔA s^−1	3.3	(4.0 ± 0.1) × 10^1 μM min^−1		
CN(C)c1ccc([Te]CCCOc2cc(CO)cc(OCCC[Te]c3ccc(N(C)C)cc3)c2OCCC[Te]c2ccc(N(C)C)cc2)cc1 [15b, 3,4,5-Tris[3-(4-dimethylaminophenyltelluro)propyloxy]benzyl Alcohol]	(3.15 ± 0.03) × 10^−4 ΔA s^−1	6.3	(7.49 ± 0.07) × 10^1 μM min^−1		
CCCCCC[Te]CCCOc1cc(COc2cc(CO)cc(OCc3cc(OCCC[Te]CCCCCC)cc(OCCC[Te]CCCCCC)c3)c2)cc(OCCC[Te]CCCCCC)c1 [20c, 3,5-Bis(3,5-bis[3-(n-hexyltelluro)propyloxy]benzyloxy)benzyl Alcohol]	(5.47 ± 0.07) × 10^−4 ΔA s^−1	11	(1.31 ± 0.01) × 10^2 μM min^−1		
CN(C)c1ccc(CCCOc2cc(COc3ccc(C(C)(c4ccc(OCc5cc(OCCCc6ccc(N(C)C)cc6)cc(OCCCc6ccc(N(C)C)cc6)c5)cc4)c4ccc(OCc5cc(OCCCc6ccc(N(C)C)cc6)cc(OCCCc6ccc(N(C)C)cc6)c5)cc4)cc3)cc(OCCCc3ccc(N(C)C)cc3)c2)cc1 [22b, 1,1,1-Tris[4-(3,5-bis[3-(4-N,N-dimethylaminophenyl)propyloxy]benzyloxy)phenyl]ethane]	(5.6 ± 0.1) × 10^−4 ΔA s^−1	11	(1.34 ± 0.02) × 10^2 μM min^−1		
CCCCCC[Te]CCCOc1cc(COc2ccc(C(C)(c3ccc(OCc4cc(OCCC[Te]CCCCCC)cc(OCCC[Te]CCCCCC)c4)cc3)c3ccc(OCc4cc(OCCC[Te]CCCCCC)cc(OCCC[Te]CCCCCC)c4)cc3)cc2)cc(OCCC[Te]CCCCCC)c1 [22c, 1,1,1-Tris[4-(3,5-bis[3-(n-hexyltelluro)propyloxy]benzyloxy)phenyl]-ethane]	(1.30 ± 0.01) × 10^−3 ΔA s^−1	26			
OCc1cc(OCCC[Te]c2ccccc2)cc(OCCC[Te]c2ccccc2)c1 [compound 9a, 3,5-Bis[3-(phenyltelluro)propyloxy]benzyl Alcohol]	(8.8 ± 0.5) × 10^−5 ΔA s^−1	1.7	(2.0 ± 0.1) × 10^1 μM min^−1		
CCCCCC[Te]CCCOc1cc(CO)cc(OCCC[Te]CCCCCC)c1 [compound 9c, 3,5-Bis[3-(n-hexyltelluro)propyloxy]benzyl Alcohol]	(2.90 ± 0.06) × 10^−4- ΔA s^−1	5.8	(6.9 ± 0.1) × 10^1 μM min^−1		
OCc1cc(OCCC[Te]c2ccccc2)c(OCCC[Te]c2ccccc2)c(OCCC[Te]c2ccccc2)c1 [compound 15a, 3,4,5-Tris[3-(phenyltelluro)propyloxy]benzyl Alcohol]	(1.14 ± 0.02) × 10^−4 ΔA s^−1	2.2	(2.66 ± 0.05) × 10^1 μM min^−1		
CCCCCC[Te]CCCOc1cc(CO)cc(OCCC[Te]CCCCCC)c1OCCC[Te]CCCCCC [compound 15c, 3,4,5-Tris[3-(n-hexyltelluro)propyloxy]benzyl Alcohol]	(4.00 ± 0.05) × 10^−4 ΔA s^−1	7.9	(9.5 ± 0.1) × 10^1 μM min^−1		
OCc1cc(OCc2cc(OCCC[Te]c3ccccc3)cc(OCCC[Te]c3ccccc3)c2)cc(OCc2cc(OCCC[Te]c3ccccc3)cc(OCCC[Te]c3ccccc3)c2)c1 [compound 20a, 3,5-Bis(3,5-bis[3-(phenyltelluro)propyloxy]benzyloxy)benzyl Alcohol]	(1.81 ± 0.05) × 10^−4 ΔA s^−1	3.6	(4.3 ± 0.1) × 10^1 μM min^−1		
CN(C)c1ccc([Te]CCCOc2cc(COc3cc(CO)cc(OCc4cc(OCCC[Te]c5ccc(N(C)C)cc5)cc(OCCC[Te]c5ccc(N(C)C)cc5)c4)c3)cc(OCCC[Te]c3ccc(N(C)C)cc3)c2)cc1 [compound 20b, 3,5-Bis(3,5-bis[3-(4-dimethylaminophenyltelluro)propyloxy]benzyloxy)benzyl Alcohol]	(3.13 ± 0.05) × 10^−4 ΔA s^−1	6.3	(7.4 ± 0.1) × 10^1 μM min^−1		
c1ccc(OCCC[Te]c2ccccc2)cc1 [compound 23a, 1-Phenoxy-3-(phenyltelluro)propane]	(5.3 ± 0.4) × 10^−5 ΔA s^−1	1		(1.10±0.01)×10^−1 s^−1	10.7 ± 0.1 M⁻¹ s⁻¹
CN(C)c1ccc([Te]CCCOc2ccccc2)cc1 [compound 23b, 1-phenoxy-3-[4-(N,N-dimethylamino)phenyltelluro]propane]	(1.06 ± 0.05) × 10^−4 ΔA s^−1	2.1	(2.5 ± 0.1) × 10^1 μM min^−1	(3.62±0.02)×10^−1 s^−1	35.1 ± 0.2 M⁻¹ s⁻¹
CCCCCC[Te]CCCCCC [compound 24, Di-n-hexyltelluride, reference compound]	(1.53 ± 0.09) × 10^−4 ΔA s^−1	3.0	(3.6 ± 0.2) × 10^1 μM min^−1	(4.5±0.4)×10^−1 s^−1	44 ± 4 M⁻¹ s⁻¹
